Patent US20240368122A1, “JAK2 INHIBITORS AND METHODS OF USE THEREOF” (RELAY THERAPEUTICS, INC., priority 2021, published 2024)
Where two headings read alike, the source gives them in different places.

Key:
[1] = target: T1, JAK2 JH2 WT (V536-D812) [W659A, W777A, F794H solubilizing mutations] (Homo sapiens, UniProt O60674, F794H/W659A/W777A); assay: Surface Plasmon Resonance (SPR) binding assay, JAK2 JH2 domain
T1 construct: **JAK2 JH2 WT (V536-D812) [W659A, W777A, F794H solubilizing mutations]; C-thrombin-avi-His6; thrombin cleavage site (C); His6 (C); purchased Biortus
T1 sequence (O60674 536-812 W659A/W777A/F794H): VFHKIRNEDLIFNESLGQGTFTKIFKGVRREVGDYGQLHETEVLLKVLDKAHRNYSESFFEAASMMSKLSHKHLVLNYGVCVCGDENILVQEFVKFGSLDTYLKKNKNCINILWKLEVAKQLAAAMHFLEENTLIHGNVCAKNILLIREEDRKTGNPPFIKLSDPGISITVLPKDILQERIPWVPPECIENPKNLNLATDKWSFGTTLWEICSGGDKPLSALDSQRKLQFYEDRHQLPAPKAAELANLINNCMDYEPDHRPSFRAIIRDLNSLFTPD
Protocol: Selected compounds of the present disclosure were tested in a Surface Plasmon Resonance (SPR) Assay to measure their binding kinetics and affinity for proteins of interest.
Prepare buffer: 50 mM HEPES pH 7.5, 150 mM NaCl, 0.05% (v/v) Tween, and 10% (v/v) glycerol were combined and pH was adjusted to 7.5, then filtered. 5 mM DTT, was added, and buffer without DMSO was reserved for compound resuspension. 2% (v/v) DMSO was added for assay buffer, and separately 1% DMSO was used to make buffer for resuspending compounds.
Prepare compounds: Using a Bravo liquid handler, 99 μL of 1% (v/v) DMSO assay buffer was added to 1 μL compounds in DMSO.
Run 8K Method: Biotin CAPture (CAP) chip surface was regenerated prior to run by: Inserting CAP chip into Biacore 8K, prime machine with assay buffer with 2% (v/v) DMSO; Setting instrument temperature to 20° C.; Conditioning surface with NaOH/GdnHCl reagents from CAP chip kit (60 seconds, 10 μL/min); and Capturing oligo-Streptavidin (SA) reagent from CAP kit (600 seconds, 1 μL/min), expected capture ˜2500 RU. JAK2 JH1 or JH2 protein was immobilized by preparing a sample of 0.5 uM JH1 or 0.4 uM JH2 protein diluted in assay buffer without DMSO and supplemented with 10 uM of a selected compound of the invention as a stabilizer (370 seconds, 5 uL/min), expected capture ˜1000 RU. Remaining biotin sites on SA were blocked with 1 uM biotin (30 seconds, 20 uL/min), then equilibrated for 1800 seconds at 100 uL/min. Compounds being assayed were run in single cycle kinetics: 4 doses with a top concentration of 5 uM (JH1) or 500 nM (JH2), dilution factor of 3, at 20° C., for a contact time of 60 seconds, and a dissociation time of 300 seconds (JH1) or 1200 seconds (JH2), at a flow rate of 30 uL/min. The surface was completely regenerated after each compound is run, and JH1 or JH2 protein was immobilized fresh prior to each new compound. Data were fitted kinetically with 1:1 binding model using Biacore Insight Evaluation Software.

[2] = system: TF1 JAK2 V617F STAT3 reporter; assay: Cellular TF1 STAT3 assay (luciferase reporter), JAK2 V617F; type: cell-based; conditions: read-out: Cell PD-TF1 JAK2 V617F STAT3 (IC50)
Protocol: (§1) Selected compounds of the present disclosure were tested in a Cellular TF1 STAT3 or STAT5 assay, to measure the degree of JAK2-mediated STAT3 or STAT5 phosphorylation, respectively. TF1 cells (immortalized erythroleukemia line) expressing either wildtype or V617F mutant JAK2 with a luciferase reporter were used.
(§2) Cell culture: Cells were put into antibiotic selection (1 ug/ml puro+500 ug/ml Geneticin) when first thawed then maintained in growth media without antibiotics. Cells were maintained in exponential growth phase, between 0.02-1 E6 cells/ml.
(§3) Compound preparation: Compounds were screened as 10-point dose response curves 1:3 dilutions. DMSO is used as the vehicle control. All wells were normalized to the same final DMSO concentration. Compounds were pre-spotted onto 384 well plates using an Echo acoustic dispenser, 50 nL of 1000× (10 mM top concentration) DMSO stock/well. Each compound is run in triplicate plates.
(§4) Cell plating: Cells were counted using Vi-Cell XR, then cells were spun down and resuspended in growth media to 200,000 cells/ml. Cells were added to plates containing compound. 10,000 cells/well in 50 ul volume using a Biomek liquid handler. Plates were briefly mixed on a shaker for 1 minute at 2500 rpm then placed in a 37° C., 5% CO2 incubator overnight for 18-20 hrs.
(§5) Measuring luciferase activity: ONE-glo reagent was brought to room temperature, and 25 μL of ONE-glo assay reagent was added to each well using Biomek liquid handler. The plates were incubated for 10 minutes at room temperature, then luminescence was measured on an Envision plate reader.

[3] = system: TF1 JAK2 V617F STAT5 reporter; assay: Cellular TF1 STAT5 assay (luciferase reporter), JAK2 V617F; type: cell-based; conditions: read-out: Cell PD TF1 V617F STAT5 (IC50)
Protocol: as §1, §2, §3, §4, §5

[4] = Homo sapiens, TF-1, TF1 cells, JAK2 V617F

Row | Kd ([1]; SPR, JAK2 JH2 domain) | IC50 ([2]; TF1 JAK2 V617F) | IC50 ([3]; TF1 JAK2 V617F) | Kd [1] | IC50 [2, 4] | IC50 [3, 4] | SMILES
1 |  |  |  | 0.01 to 10 nM | 50 to 500 nM | 50 to 500 nM | CNC(=O)c1nnc(NC(=O)C2CC2)cc1Nc1cccc(-c2cnn(C3CN(Cc4cccc(C5(C#N)CC5)n4)C3)c2)c1OC [Compound 292]
2 |  |  |  | 0.01 to 10 nM | 500 to 5000 nM | 500 to 5000 nM | CNC(=O)c1nnc(NC(=O)C2CC2)cc1Nc1cccc(-c2cnn(C3CN(Cc4cccc(C(C)(C)COC)n4)C3)c2)c1OC [Compound 351]
3 |  |  |  | 0.01 to 10 nM | 50 to 500 nM | 50 to 500 nM | CNC(=O)c1nnc(NC(=O)C2CC2)cc1Nc1ccc(C)c(-c2cnc(C(=O)N(C)Cc3cc(S(C)(=O)=O)ccn3)c(F)c2)c1OC [Compound 340]
4 |  |  |  | 0.01 to 10 nM | 500 to 5000 nM | 50 to 500 nM | CNC(=O)c1nnc(NC(=O)C2CC2)cc1Nc1ccc(Cl)c(-c2ccc(C(=O)N(C)Cc3ccn(C)n3)nc2)c1OC [Compound 223]
5 |  |  |  | 0.01 to 10 nM | 50 to 500 nM | 50 to 500 nM | CNC(=O)c1nnc(NC(=O)C2CC2)cc1Nc1cccc(-c2cnn(C3CN(Cc4cccc(N)n4)C3)c2)c1OC [Compound 242]
6 |  |  |  | 0.01 to 10 nM | 50 to 500 nM | 50 to 500 nM | CNC(=O)c1nnc(NC(=O)C2CC2)cc1Nc1cccc(-c2cnn(C3CN(Cc4cccc(C(=O)N5CCC(C(F)(F)F)C5)n4)C3)c2)c1OC (stereo not drawn) [Compound 358]
7 |  |  |  | 0.01 to 10 nM | 500 to 5000 nM | 500 to 5000 nM | CNC(=O)c1nnc(NC(=O)C2CC2)cc1Nc1cccc(-c2cn(C3CN(Cc4cccc(C#N)n4)[C@@H]3C)nn2)c1OC (stereo in doubt) [Compound 237]
8 |  |  |  | 0.01 to 10 nM | 50 to 500 nM | 10 to 50 nM | CNC(=O)c1nnc(NC(=O)C2CC2)cc1Nc1cccc(-c2cnn(C3CN(Cc4cccc(C(=O)N5CCC5)n4)C3)c2)c1OC [Compound 355]
9 |  |  |  | 0.01 to 10 nM | 50 to 500 nM | 50 to 500 nM | CNC(=O)c1nnc(NC(=O)C2CC2)cc1Nc1cccc(-c2cnn(C3CN(Cc4cccc(C(C)(C)CO)n4)C3)c2)c1OC [Compound 300]
10 |  |  |  | 0.01 to 10 nM | 50 to 500 nM | 50 to 500 nM | CNC(=O)c1nnc(NC(=O)C2CC2)cc1Nc1cccc(-c2ccc(C(=O)N(C)Cc3cn(C)nc3C3CC3)nc2)c1OC [Compound 252]
11 |  |  |  | 0.01 to 10 nM | 500 to 5000 nM | 500 to 5000 nM | CNC(=O)c1nnc(NC(=O)C2CC2)cc1Nc1cccc(-c2cn(C3CN(Cc4cccc(Cl)n4)[C@@H]3C)nn2)c1OC (stereo in doubt) [Compound 239]
12 |  |  |  | 0.01 to 10 nM | 500 to 5000 nM | 500 to 5000 nM | CNC(=O)c1nnc(NC(=O)C2CC2)cc1Nc1cccc(-c2cnn(C3CC(C(O)c4ccccn4)C3)c2)c1OC (stereo not drawn) [Compound 370]
13 |  |  |  | 50 to 500 nM | 5000 to 100000 nM | 500 to 5000 nM | CNC(=O)c1nnc(NC(=O)C2CC2)cc1Nc1cccc(-c2ccc(C3CN(Cc4cccc(C#N)n4)C3)c(OC)c2)c1OC [Compound 361]

More lines, now with the values behind:

Row | SMILES | Kd ([1]; SPR, JAK2 JH2 domain) | IC50 ([2]; TF1 JAK2 V617F) | IC50 ([3]; TF1 JAK2 V617F) | Kd [1] | IC50 [2, 4] | IC50 [3, 4]
14 | CNC(=O)c1nnc(NC(=O)C2CC2)cc1Nc1cccc(-c2ccc(C(=O)N(C)Cc3cccn(C)c3=O)nc2)c1OC [Compound 23] | 0.01 to 10 nM | 500 to 5000 nM | 50 to 500 nM |  |  | 
15 | CNC(=O)c1nnc(NC(=O)C2CC2)cc1Nc1cccc(-c2ccc(C(=O)N(C)Cc3ccccc3C(F)(F)F)nc2)c1OC [Compound 52] | 0.01 to 10 nM | 500 to 5000 nM | 500 to 5000 nM |  |  | 
16 | CNC(=O)c1nnc(NC(=O)C2CC2)cc1Nc1cccc(-c2cnn(C3CN(Cc4ncccc4F)C3)c2)c1OC [Compound 69] | 0.01 to 10 nM | 500 to 5000 nM | 500 to 5000 nM |  |  | 
17 | CNC(=O)c1nnc(NC(=O)C2CC2)cc1Nc1cccc(-c2ccc(C(=O)N(C)C[C@@H]3CCCC3(F)F)cc2)c1OC (single isomer, unassigned) [Compound 208] |  |  |  | 0.01 to 10 nM | 5000 to 100000 nM | 5000 to 100000 nM
18 | CNC(=O)c1nnc(NC(=O)C2CC2)cc1Nc1cccc(-c2cnn(C3CN(Cc4ccccc4)C3)c2)c1OC [Compound 130] | 0.01 to 10 nM | 500 to 5000 nM | 500 to 5000 nM |  |  | 
19 | CNC(=O)c1nnc(NC(=O)C2CC2)cc1Nc1cccc(-c2ccc(C(=O)N(C)Cc3cc(C#N)ccn3)c(F)c2)c1OC [Compound 131] | 0.01 to 10 nM | 500 to 5000 nM | 500 to 5000 nM |  |  | 
20 | CNC(=O)c1nnc(NC(=O)C2CC2)cc1Nc1cccc(-c2cn([C@@H]3CN(Cc4cccc(C#N)n4)[C@H]3C)nn2)c1OC (racemic) [Compound 214] |  |  |  | 0.01 to 10 nM | 50 to 500 nM | 50 to 500 nM
21 | COc1c(Nc2cc(NC(=O)C3CC3)nn3cc(C)nc23)cccc1-c1ccc(C(=O)N(C)Cc2cc(C#N)ccn2)nc1 [Compound 219] |  |  |  | 0.01 to 10 nM | 500 to 5000 nM | 500 to 5000 nM
22 | CNC(=O)c1nnc(NC(=O)C2CC2)cc1Nc1cccc(-c2cnn(C3CN(Cc4nccs4)C3)c2)c1OC [Compound 122] | 0.01 to 10 nM | 50 to 500 nM | 50 to 500 nM |  |  | 
23 | CNC(=O)c1nnc(NC(=O)C2CC2)cc1Nc1cccc(-c2ccc(C(=O)N(C)Cc3cccc(OC(F)F)n3)nc2)c1OC [Compound 179] | 0.01 to 10 nM | 500 to 5000 nM | 500 to 5000 nM |  |  | 
24 | CNC(=O)c1nnc(NC(=O)C2CC2)cc1Nc1cccc(-c2ccc(C(=O)N(C)Cc3nc(C)no3)nc2)c1OC [Compound 102] | 0.01 to 10 nM | 500 to 5000 nM | 500 to 5000 nM |  |  | 
25 | CNC(=O)c1nnc(NC(=O)C2CC2)cc1Nc1cccc(-c2ccc(C(=O)N(C)Cc3ccc(F)cc3)nc2)c1OC [Compound 113] | 10 to 50 nM | 500 to 5000 nM | 500 to 5000 nM |  |  | 
26 | CNC(=O)c1nnc(NC(=O)C2CC2)cc1Nc1cccc(-c2cnn(C3CN(Cc4cc(F)ccc4F)C3)c2)c1OC [Compound 128] | 0.01 to 10 nM | 500 to 5000 nM | 500 to 5000 nM |  |  | 
27 | CNC(=O)c1nnc(NC(=O)C2CC2)cc1Nc1cccc(-c2ccc(C(=O)N(C)Cc3nccc(C#N)c3F)nc2)c1OC [Compound 154] | 0.01 to 10 nM | 5000 to 100000 nM | 5000 to 100000 nM |  |  | 
